# Assay results from US9260393B2, “Solid state forms of N-((S)-2,3-dihydroxy-propyl)-3-(2-fluoro-4-iodo-phenylamino)-isonicotinamide” (Merck Patent GmbH, priority 2012, dated 2016).
# Entries after “also recorded” stand apart in the source; their conditions may differ.
# Key:
# Format in all cases: physicochemical
# [1] = API dissolution studies in Flow-Through-Cell system; details: for dissolution in various buffer systems: 37° C., pH range 1.2 to 6.8; for % dissolved levels after 30 minutes: flow rate 16 mL/min
# Method: Approximately 10 mg of Forms A1, A2 or B1, respectively, were accurately weighed and blended with 2 g glass beads in a Vortex mixer. The blends were then placed into a powder cell of a Flow-Through-Cell system. Dissolution studies were performed at 37° C. over 30-60 minutes at a constant flow rate of 16 mL/min. Fractions of dissolution medium after passing the Flow-Through-Cell were collected in 1 minute intervals in the first 10 minutes, in 5 minute intervals from 10-30 minutes, and in 15 minute intervals from 30-60 minutes. Dissolved levels of API in each fraction were analysed by HPLC. In dissolution experiments with HCl salt forms at pH 5.0 and pH 6.8, free base fractions which precipitated over time from the initially clear solutions in the collected dissolution fractions were re-dissolved by addition of sulphuric acid prior to HPLC analysis. All experiments were performed as triplicate preparations, with results reported as mean values from triplicates, and error bars as single standard deviations from the triplicates.
# [2] = Solubility determinations of HCl salt forms vs. free base (DI water, 0.1 N HCl); details: for Solubility / Solid-state Residue (X-Ray-Diffraction): 37° C., 24 hours
# Method: (§1) All dispersions were agitated at 37° C. for 24 hours. Dispersions were then filtered via the internal filter of the Uniprep vials, and clear filtrates were analysed by HPLC for dissolved quantities of Compound C.
# (§2) Solid state residues were analysed by X-Ray-Diffraction for identity with the initially used materials.
# [3] = Water Vapour Sorption isotherm (25° C.), DVS-1 System; details: for water uptake at elevated RH: above 80% RH
# Method: (§3) The DSC scan of Form A1 was acquired on a Mettler-Toledo DSC 821 with a heating rate of 5 K/min, using nitrogen purge gas at 50 mL/min. […] Form A1 can be classified as non-hygroscopic according to Ph. Eur. Criteria (section 5.11.).
# The DSC scan of Form A2 was acquired on a Mettler-Toledo DSC 821 with a heating rate of 5 K/min, using nitrogen purge gas at 50 mL/min. […] Eur. Criteria (section 5.11.). […]
# (§4) Eur. criteria. […] Water Vapour Sorption isotherm was acquired on a DVS-1 System from SMS. • Solubility in USP phosphate buffer (pH 7.4) at 37° C. was determined to be approx. 70 μg/mL (see Example 7).
# [4] = Thermal behaviour (DSC and TGA); details: heating rate 5 K/min
# Method: as §3
# The DSC scan of Form A2 was acquired on a Mettler-Toledo DSC 821 with a heating rate of 5 K/min, using nitrogen purge gas at 50 mL/min. […] Eur. Criteria (section 5.11.).
# DSC scan of Form B1 was acquired on a Mettler-Toledo DSC 821 with a heating rate of 5 K/min, using nitrogen purge gas at 50 mL/min. […] Eur. criteria.
# as §4
# [5] = Thermodynamic solubility of Forms B1 and B2 in USP Phosphate Buffer (pH 7.4); details: for Solid-state Residue (X-Ray-Diffraction): #1 + #2
# Method: Approximately 17 mg of Compound C (free base) crystalline form B1 were dispersed in 2 mL USP Phosphate Buffer (pH 7.4) in Whatman Uniprep Syringless Filter vials in duplicate preparations.
# Approximately 17 mg of Compound C (free base) crystalline form B2 were dispersed in 2 mL USP Phosphate Buffer (pH 7.4) in Whatman Uniprep Syringless Filter vials in duplicate preparations.
# as §1, §2
# [6] = Solvent-mediated competitive slurry conversion experiments with binary phase mixtures of Forms B1+B2; details: RT and 50° C.
# Method: Approximately 10 mg of Compound C (free base) crystalline form B1 and approx. 5 mg of Compound C (free base) crystalline form B2 were dispersed in 200-1000 μL solvent in 4-mL glass vials. A PTFE-coated magnetic stirring bar was inserted into the dispersions, and the vials were tightly closed with a screw cap containing a septum. Dispersions were agitated for 5 days on a magnetic stirrer at ambient conditions (˜23° C.) and 50° C., respectively. Dispersions were then vacuum-filtrated over a Whatman paper filter, and collected filter residues were analysed by X-Ray-Diffraction for identity with the initially used materials.
# [7] = 0.1N HCl, listed as HCl salt Form A1
# [8] = 0.1N HCl, listed as HCl salt Form A2
# [9] = USP phosphate buffer (pH 7.4), 37° C., 24 hours
# [10] = 0.1N HCl, listed as Free Base Form B1
# [11] = relative humidity (RH) range 0-80% RH
SMILES,dissolution kinetics as compared to forms B1 and B2 [1],dissolution in various buffer systems [1],aqueous solubility compared to the free base [2],solubility as compared to forms B1 and B2 [2],Solubility ([2]; 0.1N HCl),Solubility ([2]; DI Water),Solid-state Residue (X-Ray-Diffraction) ([2]; Water),"hygroscopicity (classification acc. to Ph. Eur. criteria, section 5.11.) [3]",thermal stability [4],"Solid-state Residue (X-Ray-Diffraction) [5, 9]",water uptake at elevated RH [3],"water uptake levels [3, 11] [wt %]",other results
"O=C(NC[C@H](O)CO)c1ccncc1Nc1ccc(I)cc1F [Form A1, N—((S)-2,3-Dihydroxy-propyl)-3-(2-fluoro-4-iodo-phenylamino)-isonicotinamide]",faster,rapid and complete dissolution,significantly improved,higher,approx. 44 mg/mL,approx. 2.8 mg/mL,Free base Form B1,non-hygroscopic; also recorded: slightly hygroscopic,sufficient,–,–,–,"% dissolved levels after 30 minutes ([1]; pH 1.2, 37° C., listed as HCl Salt Form A1): 100%; % dissolved levels after 30 minutes ([1]; pH 3.0, 37° C., listed as HCl Salt Form A1): 100%; % dissolved levels after 30 minutes ([1]; pH 5.0, 37° C., listed as HCl Salt Form A1): 97%; % dissolved levels after 30 minutes ([1]; pH 6.8, 37° C., listed as HCl Salt Form A1): 96%; Solid-state Residue (X-Ray-Diffraction) [2, 7]: HCl salt Form A1; Solubility [2, 7]: 43600 µg/mL; Solubility ([2]; DI Water, listed as HCl salt Form A1): 2800 µg/mL; water uptake levels ([3]; entire relative humidity range 0-98% RH): < 0.1 wt %"
"O=C(NC[C@H](O)CO)c1ccncc1Nc1ccc(I)cc1F [Form A2, N—((S)-2,3-Dihydroxy-propyl)-3-(2-fluoro-4-iodo-phenylamino)-isonicotinamide]",faster,rapid and complete dissolution,significantly improved,higher,> 20000 µg/mL,approx. 2.5 mg/mL,Free base Form B1,slightly hygroscopic,sufficient,–,–,–,"% dissolved levels after 30 minutes ([1]; pH 1.2, 37° C., listed as HCl Salt Form A2): 99%; % dissolved levels after 30 minutes ([1]; pH 3.0, 37° C., listed as HCl Salt Form A2): 100%; % dissolved levels after 30 minutes ([1]; pH 5.0, 37° C., listed as HCl Salt Form A2): 98%; % dissolved levels after 30 minutes ([1]; pH 6.8, 37° C., listed as HCl Salt Form A2): 96%; Solid-state Residue (X-Ray-Diffraction) [2, 8]: No residue obtained; Solubility [2, 8]: >20000 µg/mL; Solubility ([2]; DI Water, listed as HCl salt Form A2): 2500 µg/mL; Water Vapour Sorption behaviour [3]: small water uptake levels only"
"O=C(NC[C@H](O)CO)c1ccncc1Nc1ccc(I)cc1F [Form B1, N—((S)-2,3-Dihydroxy-propyl)-3-(2-fluoro-4-iodo-phenylamino)-isonicotinamide]",–,–,–,–,–,–,Free base Form B1,slightly hygroscopic,sufficient,Free Base Form B1,slightly enhanced,< 1,"solubility at 24 h ([5]; USP phosphate buffer, 37 °C, pH 7.4, aqueous buffer, thermodynamic from solid, USP phosphate buffer (pH 7.4), 24 hours, duplicate preparations #1, #2): ~50 µg/mL; % dissolved levels after 30 minutes ([1]; pH 1.2, 37° C., listed as Free base Form B1): 100%; % dissolved levels after 30 minutes ([1]; pH 3.0, 37° C., listed as Free base Form B1): 83%; % dissolved levels after 30 minutes ([1]; pH 5.0, 37° C., listed as Free base Form B1): 57%; % dissolved levels after 30 minutes ([1]; pH 6.8, 37° C., listed as Free base Form B1): 52%; Solid-state Residue (X-Ray-Diffraction) [2, 10]: HCI salt Form A1; Solubility [2, 10]: 17500 µg/mL; Solubility ([2]; DI Water, listed as Free Base Form B1): <100 µg/mL; thermodynamic stability of free base forms B1 vs B2 [6]: thermodynamically more stable free base form; also recorded: thermodynamically stable; thermodynamic stability of free base forms B1 vs B2 ([6]; listed as form B1): more stable form"
"O=C(NC[C@H](O)CO)c1ccncc1Nc1ccc(I)cc1F [Form B2, N—((S)-2,3-Dihydroxy-propyl)-3-(2-fluoro-4-iodo-phenylamino)-isonicotinamide]",–,–,–,–,–,–,–,slightly hygroscopic,sufficient,Free Base Form B1,slightly enhanced,~1,"supersaturated solubility level compared to form B1 ([5]; PBS buffer pH 7.4, 37° C.): increased; Solubility ([5]; USP phosphate buffer (pH 7.4), 37° C., 24 hours, duplicate preparations #1, #2): approx. 70 μg/mL"
